# Measurements from patent US7205299B2, “Indole derivatives having an apoptosis-inducing effect” (Zentaris GmbH, priority 2003, dated 2007).
# “And” between values parts separate entries of the source, which are not always exact repeats. Equal values may be shown once.
# Experiments:
# [1] = tested on: resistant line L1210/mdr (L1210VCR); assay: XTT proliferation assay, L1210VCR; format: cell-based, murine; settings: Mus musculus
# Source text: (§1) For further characterization, substances 1, 2, 4 and 11 were investigated with regard to their effect on mulitdrug-resistance cell lines as compared with that on nonresistant wild-type cell lines.
# (§2) The cell lines which were investigated are the murine cell line L1210, the acute myeloid leukemia cell line LT12 and the resistant lines L1210/mdr and LT12/mdr. The murine cell line P388 (methylcholanthrene-induced lymphoid neoplasm) and doxorubicin-resistant P388 were also included as test systems.
# (§3) The test results are summarized in Table 2 below: • XTT proliferation assay, EC50 in μg/ml
# [2] = tested on: murine cell line P388; assay: XTT proliferation assay, P388; format: cell-based; settings: Mus musculus
# Source text: as §1, §2, §3
# [3] = tested on: resistant line LT12/mdr; assay: XTT proliferation assay, LT12/mdr; format: cell-based; settings: Rattus norvegicus, LT12mdr
# Source text: as §1, §2, §3
# [4] = tested on: murine cell line L1210; assay: XTT proliferation assay, L1210; format: cell-based; settings: Mus musculus
# Source text: as §1, §2, §3
# [5] = tested on: doxorubicin-resistant P388; assay: XTT proliferation assay, P388ADR; format: cell-based, murine; settings: Mus musculus
# Source text: as §1, §2, §3
# [6] = tested on: acute myeloid leukemia cell line LT12; assay: XTT proliferation assay, LT12; format: cell-based; settings: Rattus norvegicus
# Source text: as §1, §2, §3
# [7] = molecular target: human topoisomerase II (Homo sapiens, UniProt P11388); assay: pRYG relaxation assay for testing topoisomerase II activity; format: biochemical; settings: compound 1 at 100, 31.6 and 10 μM; reference compounds 316 and 100 μM
# Protocol: In the assay, the compound 1 according to the invention was tested at three different concentrations (100, 31.6 and 10 μM). The reference compounds m-amsacrine, paclitaxel (Taxol) and vincristine were used, at concentrations of 316 and 100 μM, for comparison.
# 2 μL of 10× assay buffer, 0.5 μL of pRYG DNA (125 ng), 0.5 μL of human topoisomerase II (1 unit) and 16 μL of H2O are added by pipette to 1 μL of initially introduced test substance (20 times concentrated in 100% DMSO) and the reagents are mixed. The reaction assay samples are placed in a heating block which has been preheated to 37° C. and incubated at 37° C. for 30 min. The incubation is stopped after adding 4 μL of 5× Stop buffer. After that, 10 μL of the assay sample are loaded onto a 1.2% agarose gel containing 0.25 μg of ethidium bromide/mL and separated at 100 V for 2.5 h. Finally, the gel is photographed under UV excitation (see FIG. 3). The inhibition of pRYG relaxation is quantified using the GelPro® Analyzer Software (see FIG. 4).
# [8] = molecular target: human DNA topoisomerase II (Homo sapiens, UniProt P11388); assay: kDNA assay for testing topoisomerase II activity; format: biochemical; settings: compound 1 at 100, 31.6 and 10 μM; reference compounds 100 μM
# Protocol: In this assay, which was described by P. Arimondo (Anti-Cancer Drug Design 2000, 15(6), 413–421), kDNA is treated with human DNA topoisomerase II in the absence or presence of the test compounds. In the assay, compound 1 according to the invention was tested at three different concentrations (100, 31.6 and 10 μM). A positive control and the reference compounds m-amsacrine (m-amsa), paclitaxel (Taxol) and vincristine, with the concentration in each case being 100 μM, were used for comparison.
# 2 μL of 10× assay buffer, 1 μL of kDNA (200 ng), 0.5 μL of human topoisomerase II (1 unit) and 15.5 μL of H2O are added by pipette to 1 μL of initially introduced test substance (20 times concentrated in 100% DMSO) and the reagents are mixed.
# The reaction assay samples are placed in a heating block which has been preheated to 37° C. and incubated at 37° C. for 10 min. The incubation is stopped after adding 4 μL of 5× Stop buffer and the substance is subsequently extracted with CIA. After that, 20 μL of the supernatant are loaded onto a 1% agarose gel containing 0.25 μg of ethidium bromide/mL and separated at 100 V for 1 h. Finally, the gel is photographed under UV excitation (see FIG. 1). The inhibition of the decatenation of kDNA is quantified using the GelPro® Analyzer Software (see FIG. 2).
# [9] = tested on: U-937 cell line; assay: CDDplus nucleosome ELISA test (apoptosis); format: cell-based; settings: U-937, 1 nM–10 μM, 24 h of treatment
# Protocol: Nuclear fragmentation is a late consequence of apoptotic processes. The changes which can be observed in this connection can be attributed to DNA strands being cleaved by endonucleases and the fragmentation into nucleosome particles which results therefrom.
# For this, the effects of compounds 1 and 2 on the U-937 cell line were investigated at different concentrations (1 nM–10 μM; 24 h of treatment). (See FIG. 5 and FIG. 6).
# [10] = Saturation solubility in water; format: physicochemical; settings: thermodynamic from solid, maximum of 1% DMSO, HPLC-UV
# Protocol: A maximum of 1% DMSO was added for the purpose of solubilizing the substances and improving the wetting of the samples. An HPLC-UV method was used for checking the content.
# [11] = molecular target: bovine tubulin (Bos taurus, UniProt P81947+Q6B856); assay: Inhibition of tubulin polymerization; format: biochemical; settings: summary of Table 3
# Protocol: Substances 1, 4, 9, 11, 12, 13 and 15 were tested for their ability to inhibit the polymerization of bovine tubulin in an in-vitro test (D. M. Bollag et al. Cancer Res. 1995, 55, 2325–2333). This test uses-tubulin which has been purified by cycles of polymerization and depolymerization and which is caused to polymerize by adding GTP and heating it. Table 3 gives the EC50 values causing inhibition of the polymerization of tubulin containing 30% associated proteins (MPAs).
# [12] = tested on: mammary gland, MAXF857; assay: Human xenograft model, mammary gland MAXF857; format: in vivo
# Source text: The in-vivo activity and tolerability of compound 2 according to the invention, as compared with those of substance 10, were examined in another human xenograft model (mammary gland, MAXF857).
# [13] = tested on: melanoma, MEXF-462; assay: Human xenograft model, melanoma MEXF-462; format: in vivo; settings: for tolerability (in words): MEXF462 xenograft, p.o.
# Source text: The in-vivo activity and tolerability of compound 2 according to the invention, as compared with those of substances 10 and 14, were examined in a human xenograft model (melanoma, MEXF-462).
# [14] = tested on: KB/HeLa cells; assay: Cell cycle analysis (G2/M arrest); format: cell-based; settings: Homo sapiens, 24 hours, 37° C., read-out: EC50 (50% of cells in G2/M)
# Protocol: For the cell cycle analysis, KB/HeLa cells were treated with different concentrations of the test substances (0.1–1000 nM) at 37° C. for 24 hours.
# The percentage of cells arrested in the G2/M phase of the cell cycle after having been treated with reference substances or selected test substances is shown in Table 4 below. The results were analyzed using special analytical software (ModFit™).
# bovine tubulin, sequence (P81947 whole entry): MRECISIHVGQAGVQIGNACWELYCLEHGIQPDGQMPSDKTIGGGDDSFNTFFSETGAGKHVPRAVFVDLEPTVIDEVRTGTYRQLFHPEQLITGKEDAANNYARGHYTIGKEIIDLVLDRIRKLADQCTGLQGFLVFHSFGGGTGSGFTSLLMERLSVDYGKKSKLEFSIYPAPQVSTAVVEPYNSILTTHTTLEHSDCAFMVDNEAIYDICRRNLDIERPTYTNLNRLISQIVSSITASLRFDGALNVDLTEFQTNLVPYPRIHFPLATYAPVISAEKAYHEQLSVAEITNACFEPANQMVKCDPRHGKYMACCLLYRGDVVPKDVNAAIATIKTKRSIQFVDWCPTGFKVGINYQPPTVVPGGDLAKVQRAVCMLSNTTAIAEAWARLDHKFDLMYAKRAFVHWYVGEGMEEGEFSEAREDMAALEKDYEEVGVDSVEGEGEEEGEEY
# bovine tubulin, sequence (Q6B856 whole entry): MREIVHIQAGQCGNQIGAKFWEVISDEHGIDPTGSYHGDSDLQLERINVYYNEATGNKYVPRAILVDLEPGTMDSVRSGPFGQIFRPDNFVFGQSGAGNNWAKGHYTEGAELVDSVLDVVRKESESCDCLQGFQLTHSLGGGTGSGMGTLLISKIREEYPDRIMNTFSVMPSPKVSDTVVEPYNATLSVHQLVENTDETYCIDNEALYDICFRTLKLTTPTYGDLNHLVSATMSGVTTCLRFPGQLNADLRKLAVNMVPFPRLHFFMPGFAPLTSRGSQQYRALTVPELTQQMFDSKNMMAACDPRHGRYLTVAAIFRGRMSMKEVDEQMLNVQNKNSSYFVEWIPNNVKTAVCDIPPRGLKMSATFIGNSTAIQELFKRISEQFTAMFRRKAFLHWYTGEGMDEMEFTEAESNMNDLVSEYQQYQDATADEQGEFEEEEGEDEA
# human DNA topoisomerase II, sequence (P11388 whole entry): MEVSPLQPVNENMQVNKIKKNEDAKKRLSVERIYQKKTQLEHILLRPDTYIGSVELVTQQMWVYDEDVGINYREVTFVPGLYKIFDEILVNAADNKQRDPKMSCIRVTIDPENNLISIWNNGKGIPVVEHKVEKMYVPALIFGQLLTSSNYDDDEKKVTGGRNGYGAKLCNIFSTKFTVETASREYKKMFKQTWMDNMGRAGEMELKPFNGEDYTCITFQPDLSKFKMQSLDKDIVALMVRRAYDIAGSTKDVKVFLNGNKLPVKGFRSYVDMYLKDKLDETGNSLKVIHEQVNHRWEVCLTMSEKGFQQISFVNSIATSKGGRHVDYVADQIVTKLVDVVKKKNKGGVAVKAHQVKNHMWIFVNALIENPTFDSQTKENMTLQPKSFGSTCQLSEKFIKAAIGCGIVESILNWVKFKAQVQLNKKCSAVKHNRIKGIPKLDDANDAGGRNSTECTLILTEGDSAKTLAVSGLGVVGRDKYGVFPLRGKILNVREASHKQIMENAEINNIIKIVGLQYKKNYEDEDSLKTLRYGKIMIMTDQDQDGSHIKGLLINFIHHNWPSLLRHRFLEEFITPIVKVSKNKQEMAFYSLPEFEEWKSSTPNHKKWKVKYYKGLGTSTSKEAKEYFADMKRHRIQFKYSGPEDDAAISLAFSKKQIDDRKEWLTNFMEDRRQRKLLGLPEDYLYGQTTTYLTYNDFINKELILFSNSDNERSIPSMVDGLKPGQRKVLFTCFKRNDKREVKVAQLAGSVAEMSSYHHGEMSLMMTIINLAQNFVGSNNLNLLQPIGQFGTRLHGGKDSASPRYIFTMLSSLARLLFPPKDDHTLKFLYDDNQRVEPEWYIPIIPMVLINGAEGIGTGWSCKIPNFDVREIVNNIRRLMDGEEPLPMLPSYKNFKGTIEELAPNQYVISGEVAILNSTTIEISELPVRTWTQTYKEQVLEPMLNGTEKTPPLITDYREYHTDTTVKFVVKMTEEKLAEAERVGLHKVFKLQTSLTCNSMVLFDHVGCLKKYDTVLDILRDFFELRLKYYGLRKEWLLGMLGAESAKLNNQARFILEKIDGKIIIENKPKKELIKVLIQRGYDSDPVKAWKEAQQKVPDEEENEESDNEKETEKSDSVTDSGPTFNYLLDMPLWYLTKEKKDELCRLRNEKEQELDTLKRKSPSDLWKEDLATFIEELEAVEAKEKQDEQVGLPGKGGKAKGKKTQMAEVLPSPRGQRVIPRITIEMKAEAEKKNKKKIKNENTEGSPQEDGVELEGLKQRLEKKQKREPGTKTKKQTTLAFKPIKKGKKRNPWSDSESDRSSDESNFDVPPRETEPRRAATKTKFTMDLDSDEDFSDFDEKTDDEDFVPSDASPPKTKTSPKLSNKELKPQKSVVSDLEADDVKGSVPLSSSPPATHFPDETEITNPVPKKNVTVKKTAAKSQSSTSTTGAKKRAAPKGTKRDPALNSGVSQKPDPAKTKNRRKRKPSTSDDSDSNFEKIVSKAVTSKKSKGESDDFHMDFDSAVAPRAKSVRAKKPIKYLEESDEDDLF
# human topoisomerase II, sequence (P11388 whole entry): as above
SMILES,EC50 [1] [µg/mL],EC50 [2] [µg/mL],EC50 [3] [µg/mL],EC50 [4] [µg/mL],EC50 [5] [µg/mL],EC50 [6] [µg/mL],solubility [10] [µg/mL],inhibitory effect on tubulin polymerization (in words) [11],also measured
"CC[C@]1(O)C[C@H]2CN(CCc3c([nH]c4ccccc34)[C@@](C(=O)OC)(c3cc4c(cc3OC)N(C=O)[C@H]3[C@@](O)(C(=O)OC)[C@H](OC(C)=O)[C@]5(CC)C=CCN6CC[C@]43[C@@H]65)C2)C1 [Vincristine, vincristine]",> 3.16,0.004,0.134,0.015,0.93,0.002,,,"inhibition of topoisomerase II, pRYG DNA relaxation [7]: neither paclitaxel nor vincristine was observed to have any inhibitory effects; inhibition of topoisomerase II, kDNA decatenation [8]: neither paclitaxel nor vincristine was observed to have any inhibitory effects"
"COc1cccc2c1C(=O)c1c(O)c3c(c(O)c1C2=O)C[C@@](O)(C(=O)CO)C[C@@H]3O[C@H]1C[C@H](N)[C@H](O)[C@H](C)O1 [Doxorubicin, doxorubicin]",> 3.16,0.204,> 3.16,0.269,> 3.16,0.029,,,
"O=C(Nc1cnc2nccnc2c1)C(=O)c1cn(Cc2ccc(Cl)cc2)c2ccccc12 [Compound 1, 2-[1-(4-chlorobenzyl)-1H-indol-3-yl]-2-oxo-N-pyrido[2,3-b]pyrazin-7-ylacetamide]",,,,,,,25,very potent inhibitory effect,"nucleosomes in the cell culture supernatant [9]: not possible to demonstrate any significant increase; nucleosomes in the cell lysate [9]: concentration-dependent increase of nucleosomes in the cell lysate; inhibition of topoisomerase II, pRYG DNA relaxation [7]: significantly inhibit topoisomerase II; inhibition of topoisomerase II, kDNA decatenation [8]: significantly inhibit topoisomerase II"
"O=C(Nc1ccc2[nH]ncc2c1)C(=O)c1cn(Cc2ccc(Cl)cc2)c2ccccc12 [Compound 4, 2-[1-(4-chlorobenzyl)-1H-indol-3-yl]-N-(1H-indazol-5-yl)-2-oxoacetamide]",,,,,,,,very potent inhibitory effect,melting point: 203 °C
"Cc1ccc2cc(NC(=O)C(=O)c3cn(Cc4ccc(Cl)cc4)c4ccccc34)ccc2n1 [Compound 9, 2-[1-(4-chlorobenzyl)-1H-indol-3-yl]-N-(2-methylquinolin-6-yl)-2-oxoacetamide]",,,,,,,,very potent inhibitory effect,
"O=C(Nc1ccc2ncccc2c1)C(=O)c1cn(Cc2ccc(Cl)cc2)c2ccccc12 [Compound 10, 2-[1-(4-chlorobenzyl)-1H-indol-3-yl]-2-oxo-N-quinolin-6-ylacetamide]",,,,,,,0.038,,"Deaths n (dead animals / total number) ([12]; MAXF857, 40 mg/kg p.o.): 2/6 and 2/6 mice; tolerability (in words) ([12]; MAXF857 xenograft, p.o.): substantially less well tolerated than 2; Deaths n (dead animals / total number) ([13]; MEXF462, 55 mg/kg p.o.): 2/6 mice; Deaths n (dead animals / total number) ([13]; MEXF462, 70 mg/kg p.o.): 5/6 mice; tolerability (in words) [13]: less well tolerated"
"CC(=O)N(C(=O)C(=O)c1cn(Cc2ccc(Cl)cc2)c2ccccc12)c1ccc2ncccc2c1 [Compound 2, N-{2-[1-(4-chlorobenzyl)-1H-indol-3-yl]-2-oxoacetyl}-N-quinolin-6-ylacetamide]",,,,,,,28.5,,"nucleosomes in the cell culture supernatant [9]: not possible to demonstrate any significant increase; nucleosomes in the cell lysate [9]: concentration-dependent increase of nucleosomes in the cell lysate; Deaths n (dead animals / total number) ([12]; MAXF857, 80 mg/kg p.o.): 0/6 mice; Optimum T/C % (day) ([12]; MAXF857, 80 mg/kg p.o., day 10): 9.6% (10); Deaths n (dead animals / total number) ([13]; MEXF462, 80 mg/kg p.o.): 0/6 mice; remission of the tumors ([13]; MEXF462, 80 mg/kg p.o., 6 animals): complete remission of the tumors in the treated animals; Optimum T/C % (day) ([13]; MEXF462, 80 mg/kg p.o., day 18): 0.0% (18); tolerability (in words) [13]: very well tolerated (no deaths)"
"Cc1ccc2cccc(NC(=O)C(=O)c3cn(Cc4ccc(F)cc4)c4ccccc34)c2n1 [Compound 15, 2-[1-(4-fluorobenzyl)-1H-indol-3-yl]-N-(2-methylquinolin-8-yl)-2-oxoacetamide]",,,,,,,,do not exert any effect,melting point: 200 to 202 °C
"O=C1c2c(O)ccc(O)c2C(=O)c2c(NCCNCCO)ccc(NCCNCCO)c21 [Mitoxantrone, mitoxantrone]",2.1,0.053,3.1,0.09,0.608,0.006,,,EC50 [14]: 25.3 nM
"O=C(Nc1ccncc1)C(=O)c1cn(Cc2ccc(Cl)cc2)c2ccccc12 [Compound 14, 2-[1-(4-chlorobenzyl)-1H-indol-3-yl]-2-oxo-N-pyridin-4-ylacetamide]",,,,,,,0.35,,"Deaths n (dead animals / total number) ([13]; MEXF462, 16 mg/kg p.o.): 3/5 mice; Deaths n (dead animals / total number) ([13]; MEXF462, 32 mg/kg p.o.): 3/5 mice; tolerability (in words) [13]: less well tolerated"
"O=C(Nc1cccc2cccnc12)C(=O)c1cn(Cc2ccc(Cl)cc2)c2ccccc12 [Compound 12, 2-[1-(4-chlorobenzyl)-1H-indol-3-yl]-2-oxo-N-quinolin-8-ylacetamide]",,,,,,,,do not exert any effect,melting point: 178 °C
"COc1cc([C@@H]2c3cc4c(cc3[C@@H](O[C@@H]3O[C@@H]5CO[C@@H](C)O[C@H]5[C@H](O)[C@H]3O)[C@H]3COC(=O)[C@H]23)OCO4)cc(OC)c1O [Etoposide, etoposide]",> 3.16,0.202,> 3.6,0.269,> 3.16,0.094,,,
